Measured values reported in patent publication US20220162191A1, “SMALL MOLECULE MODULATORS OF IL-17” (LEO PHARMA A/S, priority 2019, published 2022).

Each molecule was assayed against T1, human IL-17AA (Homo sapiens, UniProt Q16552) (assay: IL-8 release assay in human epithelial keratinocytes adult (HEKa)). Conditions: 3 ng/ml human IL-17AA + 10 ng/ml human TNFalpha, 68-72 h, IL-8 by HTRF, read-out: Rel EC50 L-8 release assay.
T1 construct: host or cells: HEK (human embryonic kidney) cells
T1 sequence (Q16552 24-155) 1: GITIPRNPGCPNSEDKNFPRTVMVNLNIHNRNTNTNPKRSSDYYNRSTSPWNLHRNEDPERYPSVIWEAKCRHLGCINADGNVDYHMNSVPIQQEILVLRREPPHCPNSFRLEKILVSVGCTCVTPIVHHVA
T1 sequence (Q16552 24-155) 2: T1 sequence (Q16552 24-155) 1
Type: cell-based
Outline: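 Adult human keratinocytes in Epilife with HKGS minus hydrocortisone, treated with compound then stimulated with final 3 ng/ml HEK-derived human IL-17AA plus 10 ng/ml TNF-alpha for 68–72 h at 37 °C; TNF-alpha alone defines 100% inhibition. Secreted IL-8 by HTRF; relative IC50 and Emax from four-parameter fits.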

Molecule	EC50 [µM]
CC(C)n1cc(-c2ccc3c(c2)[C@H]([C@H](NC(=O)c2ccnn2C)C(=O)Nc2ccc(-c4cncn4C)cc2)CC3)ccc1=O [Example 3, N-[(1S)-1-[(1R)-6-(1-isopropyl-6-oxo-3-pyridyl)indan-1-yl]-2-[4-(3-methylimidazol-4-yl)anilino]-2-oxo-ethyl]-2-methyl-pyrazole-3-carboxamide]	0.1 to 1
N-[1-[[2-chloro-5-(1-(l-6-oxo-3- pyridyl)phenyl]methyl]-2-[4-(3-chloro- 1H-pyrazol-4-yl)anilino]-2-oxo-ethyl]-2- methyl-pyrazole-3-carboxamide [Example 180]	0.1 to 1
Cn1cncc1-c1ccc(NC(=O)C(Cc2cc(-c3ccnc(OCC(F)(F)F)c3)ccc2Cl)NC(=O)c2ccnn2C)cc1 (stereo not shown) [Example 152, N-[1-[[2-chloro-5-[2-(2,2,2-trifluoroethoxy)-4-pyridyl]phenyl]methyl]-2-[4-(3-methylimidazol-4-yl)anilino]-2-oxo-ethyl]-2-methyl-pyrazole-3-carboxamide]	0.1 to 1
CN1CCOC[C@@H]1c1cccc(-c2ccc(Cl)c(C[C@H](NC(=O)c3ccnn3C)C(=O)Nc3ccc(-c4cncn4C)cc3)c2)c1 [Example 217, N-[(1S)-1-[[2-chloro-5-[3-[(3S)-4-methylmorpholin-3-yl]phenyl]phenyl]methyl]-2-[4-(3-methylimidazol-4-yl)anilino]-2-oxo-ethyl]-2-methyl-pyrazole-3-carboxamide]	0.1 to 1
Cc1cnn(C)c1-c1ccc(NC(=O)[C@H](Cc2cc(-c3ccc(=O)n(C(C)C)c3)ccc2Cl)NC(=O)C2(F)CC2)cc1 [Example 119, N-[(1S)-1-[[2-chloro-5-(1-isopropyl-6-oxo-3-pyridyl)phenyl]methyl]-2-[4-(2,4-dimethylpyrazol-3-yl)anilino]-2-oxo-ethyl]-1-fluoro-cyclopropanecarboxamide]	0.1 to 1

Further lines, results first:

EC50 [µM]	Molecule
0.1 to 1	Cc1n[nH]c(C)c1-c1ccc(NC(=O)[C@@H](NC(=O)C2(F)CC2)C(C)c2cc(-c3ccc(=O)n(C(C)C)c3)ccc2Cl)cc1 (stereo partly drawn) [Example 51, N-[(1S)-2-[2-chloro-5-(1-isopropyl-6-oxo-3-pyridyl)phenyl]-1-[[4-(3,5-dimethyl-1H-pyrazol-4-yl)phenyl]carbamoyl]propyl]-1-fluoro-cyclopropanecarboxamide]
< 0.1	Cc1cnn(C)c1-c1ccc(NC(=O)[C@@H](NC(=O)C2(F)CC2)[C@@H](c2cccc(-c3cncc(N4C[C@@H]5C[C@H]4CO5)n3)c2)C2CC2)cc1 [Example 350, N-[(1S)-1-[(R)-cyclopropyl-[3-[6-[(1S,4S)-2-oxa-5-azabicyclo[2.2.1]heptan-5-yl]pyrazin-2-yl]phenyl]methyl]-2-[4-(2,4-dimethylpyrazol-3-yl)anilino]-2-oxo-ethyl]-1-fluoro-cyclopropanecarboxamide]
< 0.1	Cc1n[nH]c(C)c1-c1ccc(NC(=O)[C@@H](NC(=O)C2(F)CC2)[C@@H]2CCc3ccc(-c4cnn(C(C)(C)CO)c4)cc32)cc1 [Example 12, N-[(1S)-2-[4-(3,5-dimethyl-1H-pyrazol-4-yl)anilino]-1-[(1R)-6-[1-(2-hydroxy-1,1-dimethyl-ethyl)pyrazol-4-yl]indan-1-yl]-2-oxo-ethyl]-1-fluoro-cyclopropanecarboxamide]
< 0.1	Cc1n[nH]c(C)c1-c1ccc(NC(=O)[C@H](Cc2cc(-c3cccc(C(C)(C)N)c3)ccc2Cl)NC(=O)c2ccnn2C)cc1 [Example 59, N-[(1S)-1-[[5-[3-(1-amino-1-methyl-ethyl)phenyl]-2-chloro-phenyl]methyl]-2-[4-(3,5-dimethyl-1H-pyrazol-4-yl)anilino]-2-oxo-ethyl]-2-methyl-pyrazole-3-carboxamide]
> 1	CN(C)Cc1cc(-c2ccc(Cl)c(CC(NC(=O)c3ccnn3C)C(=O)Nc3ccc(-c4nncn4C)cc3)c2)ccc1O (stereo not shown) [Example 139, N-[1-[[2-chloro-5-[3-(dimethylaminomethyl)-4-hydroxy-phenyl]phenyl]methyl]-2-[4-(4-methyl-1,2,4-triazol-3-yl)anilino]-2-oxo-ethyl]-2-methyl-pyrazole-3-carboxamide]
